Measurements reported in PubChem BioAssay (NCI).
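Five concentrations, 48 hours, 96-well plates. Here, GI50 denotes the concentration required for 50% inhibition of growth. TGI denotes the concentration required for complete inhibition of growth.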

What was measured:
Test in all cases: NCI-60 cell line screen, 48 h
[1] = test system: SK-MEL-5 melanoma
[2] = test system: HT29 colon
[3] = test system: SN12C renal
[4] = test system: UACC-257 melanoma
[5] = test system: CAKI-1 renal
[6] = test system: ACHN renal
[7] = test system: T-47D breast
[8] = test system: MDA-MB-435
[9] = test system: OVCAR-3 ovarian
[10] = test system: CCRF-CEM leukemia
[11] = test system: SF-539 CNS
[12] = test system: MDA-MB-231 breast
[13] = test system: SF-268 CNS
[14] = test system: NCI-H522 lung
[15] = test system: NCI/ADR-RES ovarian
[16] = test system: PC-3 prostate
[17] = test system: K-562 leukemia
[18] = test system: SNB-19 CNS
[19] = test system: NCI-H460 lung
[20] = test system: OVCAR-4 ovarian
[21] = test system: SF-295 CNS
[22] = test system: 786-0 renal
[23] = test system: M14 melanoma
[24] = test system: HL-60(TB) leukemia
[25] = test system: DU-145 prostate
[26] = test system: HCC-2998 colon
[27] = test system: OVCAR-5 ovarian
[28] = test system: RPMI-8226 leukemia
[29] = test system: MCF7 breast
[30] = test system: UO-31 renal
[31] = test system: COLO 205 colon
[32] = test system: HOP-92 NSCLC
[33] = test system: MALME-3M melanoma
[34] = test system: HS 578T breast
[35] = test system: TK-10 renal
[36] = test system: NCI-H226 lung
[37] = test system: SNB-75 CNS
[38] = test system: NCI-H23 lung
[39] = test system: UACC-62 melanoma
[40] = test system: A549 NSCLC
[41] = test system: EKVX NSCLC
[42] = test system: KM12 colon
[43] = test system: LOX IMVI melanoma
[44] = test system: SW-620 colon
[45] = test system: HCT-116 colon
[46] = test system: SK-OV-3 ovarian
[47] = test system: IGROV1 ovarian
[48] = test system: BT-549 breast
[49] = test system: RXF 393 renal
[50] = test system: SK-MEL-2 melanoma
[51] = test system: SR leukemia
[52] = test system: HCT-15 colon
[53] = test system: MOLT-4 leukemia
[54] = test system: SK-MEL-28 melanoma
[55] = test system: OVCAR-8 ovarian
[56] = test system: HOP-62 NSCLC
[57] = test system: U251 CNS
[58] = test system: A498 renal

O=c1[nH]c2ccc(N=Cc3c(O)[nH]c4ccccc34)cc2[nH]1
GI50 [1]: > 25 µM
TGI [1]: > 25 µM
GI50 [2]: > 25 µM
TGI [2]: > 25 µM
GI50 [3]: > 25 µM
TGI [3]: > 25 µM
GI50 [4]: > 25 µM
TGI [4]: > 25 µM
GI50 [5]: > 25 µM
TGI [5]: > 25 µM
GI50 [6]: > 25 µM
TGI [6]: > 25 µM
GI50 [7]: > 25 µM
TGI [7]: > 25 µM
GI50 [8]: > 25 µM
TGI [8]: > 25 µM
GI50 [9]: > 25 µM
TGI [9]: > 25 µM
GI50 [10]: 24.2 µM
TGI [10]: > 25 µM
GI50 [11]: > 25 µM
TGI [11]: > 25 µM
GI50 [12]: > 25 µM
TGI [12]: > 25 µM
GI50 [13]: > 13.8 µM
TGI [13]: > 25 µM
GI50 [14]: > 25 µM
TGI [14]: > 25 µM
GI50 [15]: > 25 µM
TGI [15]: > 25 µM
GI50 [16]: > 25 µM
TGI [16]: > 25 µM
GI50 [17]: > 25 µM
TGI [17]: > 25 µM
GI50 [18]: > 25 µM
TGI [18]: > 25 µM
GI50 [19]: > 25 µM
TGI [19]: > 25 µM
GI50 [20]: > 25 µM
TGI [20]: > 25 µM
GI50 [21]: > 25 µM
TGI [21]: > 25 µM
GI50 [22]: > 25 µM
TGI [22]: > 25 µM
GI50 [23]: > 25 µM
TGI [23]: > 25 µM
GI50 [24]: > 25 µM
TGI [24]: > 25 µM
GI50 [25]: > 20.4 µM
TGI [25]: > 25 µM
GI50 [26]: > 25 µM
TGI [26]: > 25 µM
GI50 [27]: > 25 µM
TGI [27]: > 25 µM
GI50 [28]: > 25 µM
TGI [28]: > 25 µM
GI50 [29]: > 25 µM
TGI [29]: > 25 µM
GI50 [30]: > 25 µM
TGI [30]: > 25 µM
GI50 [31]: > 25 µM
TGI [31]: > 25 µM
GI50 [32]: 23.2 µM
TGI [32]: > 25 µM
GI50 [33]: > 25 µM
TGI [33]: > 25 µM
GI50 [34]: > 6.4 µM
TGI [34]: > 25 µM
GI50 [35]: > 25 µM
TGI [35]: > 25 µM
GI50 [36]: > 25 µM
TGI [36]: > 25 µM
GI50 [37]: > 14.7 µM
TGI [37]: > 25 µM
GI50 [38]: > 25 µM
TGI [38]: > 25 µM
GI50 [39]: > 25 µM
TGI [39]: > 25 µM
GI50 [40]: > 25 µM
TGI [40]: > 25 µM
GI50 [41]: > 25 µM
TGI [41]: > 25 µM
GI50 [42]: > 25 µM
TGI [42]: > 25 µM
GI50 [43]: > 25 µM
TGI [43]: > 25 µM
GI50 [44]: > 25 µM
TGI [44]: > 25 µM
GI50 [45]: > 25 µM
TGI [45]: > 25 µM
GI50 [46]: > 25 µM
TGI [46]: > 25 µM
GI50 [47]: > 25 µM
TGI [47]: > 25 µM
GI50 [48]: > 25 µM
TGI [48]: > 25 µM
GI50 [49]: > 25 µM
TGI [49]: > 25 µM
GI50 [50]: > 25 µM
TGI [50]: > 25 µM
GI50 [51]: > 25 µM
TGI [51]: > 25 µM
GI50 [52]: > 25 µM
TGI [52]: > 25 µM
GI50 [53]: > 25 µM
TGI [53]: > 25 µM
GI50 [54]: > 25 µM
TGI [54]: > 25 µM
GI50 [55]: > 25 µM
TGI [55]: > 25 µM
GI50 [56]: > 17.7 µM
TGI [56]: > 25 µM
GI50 [57]: 18.6 µM
TGI [57]: > 25 µM
GI50 [58]: > 25 µM
TGI [58]: > 25 µM
